Tested on: 519858-162-T-J1-PDC spheroid growth inhibition
Assay: Anticancer human tumor 519858-162-T-J1-PDC patient-derived colon adenocarcinoma cell line growth inhibition [TAK]
Settings: spheroids with HUVEC and MSC; for IC50: curve of first compound; for viability, T/C: stronger effect = lower value
From the text: Combinatorial screen of targeted agents with TAK-243 and ipatasertib in multi-cell type tumor spheroids
A high-throughput screen of multi-cell type tumor spheroids was designed to identify active combinations of targeted small molecules and TAK-243 or ipatasertib. Complex spheroids include a stromal component modeled by human endothelial cells (HUVEC) and fibroblasts modeled by human mesenchymal stem cells (MSCs). The concentration ranges selected for each drug and investigational agent were based upon clinically achievable concentrations if the clinical Cmax of the agent was known.
Compounds. The drugs and investigational agents: TAK-243 (785004), ipatasertib (767898), everolimus (733504), selumetinib (741078), bortezomib (756655), trametinib (758246), ixazomib (758254), vemurafenib (761431), dabrafenib (764134), sapanisertib (764658), alpelisib (765974), and copanlisib (816437), were obtained from the National Cancer Institute (NCI) Developmental Therapeutics Program Chemical Repository. The FDA-approved anticancer drug set is available from the NCI Developmental Therapeutics Program. […] The stock solutions were prepared in dimethyl sulfoxide (DMSO, Sigma-Aldrich, St. Louis, MO, cat. D2650) at 800-fold the tested concentration and stored at -70 degrees C prior to their use. All drugs and investigational agents were tested over a range starting from a high concentration at or near the clinical Cmax and decreasing in half-log increments. If the clinical Cmax for an agent had not been determined, the highest concentration tested was 10 microM.
NCI60 Cell Culture. NCI60 cell lines were obtained from the NCI Developmental Therapeutics Program Tumor Repository. For each lot of cells, the Repository performed Applied Biosystems AmpFLSTR Identifiler testing with PCR amplification to confirm consistency with the published Identifier STR profile for each cell line. Cells were kept in continuous culture for no more than 20 passages. The optimal seeding densities for each of the cell lines at each time point assessed were determined prior to performing the concentration response studies. Briefly, the NCI60 human tumor lines were grown as monolayers in RPMI 1640 medium supplemented with 10% FBS and 2 mmol/L L-glutamine.
An additional 2 lines were from the NCI60 cell line panel including melanomas, MALME-3M and SK-MEL-2. Pooled donor human umbilical vein endothelial cells (HUVEC, Lonza, cat. CC-2519) and human mesenchymal stem cells (hMSC, Lonza, cat. PT-2501) were purchased from Lonza (Walkersville, MD).
PDMR cell lines were grown in complete medium (DC medium): Dulbecco's modified Eagle's medium (DMEM)/F12 supplemented with 5% fetal bovine serum (FBS), 2 mM L-glutamine, 100 U/mL penicillin and 100 µg/ml streptomycin, 0.4 µg/ml hydrocortisone, 10 ng/ml epidermal growth factor (EGF) recombinant human protein, 24 µg/mL adenine, and 0.1 mg/mL primocin. During culture from frozen stock vials, PDMR cells were cultured in the same medium containing 10 µM Y-27632 (see Table 3). The PDCs were cultured in complete DMEM/F12 media without 10 microM Y-27632 dihydrochloride for at least two passages prior to the screen. The pooled donor HUVEC and hMSC were cultured in endothelial cell growth medium 2 (PromoCell, Heidelberg, Germany, cat. C-22011) and mesenchymal stem cell growth medium 2 (PromoCell, cat. C-28009), respectively. For all experiments, HUVEC and hMSC were used at passages </=5.
For the pre-screen, cell seeding densities were determined from a titration spanning the range from 5,000 to 313 cells per well. The mct-spheroids including 60% malignant cells, 25% HUVEC and 15% MSC dispensed as a mixture into U-bottom Ultra-Low Attachment 384-well plates (Corning, NY)
High-throughput Drug Combination Screening.
Prior to their inoculation into 384-well plates, malignant cells, HUVEC, and hMSC were removed from T flasks using TrypLE express (Thermo Fisher Scientific, cat. 12605036) and harvested by centrifugation for 5 min at 233 x g. […]
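Also: spheroids exposed to drugs for 7 days.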

How did the IC50 (second compound 0.3 µM) turn out when `COC1CC2CCC(C)C(O)(O2)C(=O)C(=O)N2CCCCC2C(=O)OC(C(C)CC2CCC(OCCO)C(OC)C2)CC(=O)C(C)C=C(C)C(O)C(OC)C(=O)C(C)CC(C)C=CC=CC=C1C` (stereo not given) + CC(C)NCC(C(=O)N1CCN(c2ncnc3c2C(C)CC3O)CC1)c1ccc(Cl)cc1 was run?
The IC50 was > 100 nM.

And the IC50 (second compound 0.949 µM)?
Its IC50 is > 100 nM.

What about the IC50 (second compound 3 µM) of the same molecule?
Its IC50 is > 100 nM.

What about the IC50 (second compound 9.49 µM) of the same molecule?
The IC50 was > 100 nM.

What about the IC50 (second compound 30 µM) of the same molecule?
The IC50 was > 100 nM.

What about the viability, T/C (second compound 0.3 µM, first compound 0.000316 µM) of the same molecule?
The viability, T/C was 102%.

And the viability, T/C (second compound 0.3 µM, first compound 0.001 µM)?
The viability, T/C was 91.5%.

What about the viability, T/C (second compound 0.3 µM, first compound 0.00316 µM) of the same molecule?
Its viability, T/C is 89.6%.

And the viability, T/C (second compound 0.3 µM, first compound 0.01 µM)?
The viability, T/C was 90%.

What about the viability, T/C (second compound 0.3 µM, first compound 0.0316 µM) of the same molecule?
Its viability, T/C is 104%.

What about the viability, T/C (second compound 0.3 µM, first compound 0.1 µM) of the same molecule?
Its viability, T/C is 84.6%.

What about the viability, T/C (second compound 0.949 µM, first compound 0.000316 µM) of the same molecule?
Its viability, T/C is 83.6%.

What about the viability, T/C (second compound 0.949 µM, first compound 0.001 µM) of the same molecule?
The viability, T/C was 87.1%.

What about the viability, T/C (second compound 0.949 µM, first compound 0.00316 µM) of the same molecule?
Its viability, T/C is 65.8%.

And the viability, T/C (second compound 0.949 µM, first compound 0.01 µM)?
Its viability, T/C is 85.7%.

And the viability, T/C (second compound 0.949 µM, first compound 0.0316 µM)?
The viability, T/C was 85.2%.

What about the viability, T/C (second compound 0.949 µM, first compound 0.1 µM) of the same molecule?
Its viability, T/C is 71.6%.

What about the viability, T/C (second compound 3 µM, first compound 0.000316 µM) of the same molecule?
The viability, T/C was 99.2%.

And the viability, T/C (second compound 3 µM, first compound 0.001 µM)?
Its viability, T/C is 68.7%.

What about the viability, T/C (second compound 3 µM, first compound 0.00316 µM) of the same molecule?
Its viability, T/C is 85.3%.

What about the viability, T/C (second compound 3 µM, first compound 0.01 µM) of the same molecule?
Its viability, T/C is 93.4%.

What about the viability, T/C (second compound 3 µM, first compound 0.0316 µM) of the same molecule?
The viability, T/C was 85.6%.

What about the viability, T/C (second compound 3 µM, first compound 0.1 µM) of the same molecule?
The viability, T/C was 94.1%.

And the viability, T/C (second compound 9.49 µM, first compound 0.000316 µM)?
The viability, T/C was 98.9%.

What about the viability, T/C (second compound 9.49 µM, first compound 0.001 µM) of the same molecule?
Its viability, T/C is 84.6%.

And the viability, T/C (second compound 9.49 µM, first compound 0.00316 µM)?
Its viability, T/C is 75.6%.

What about the viability, T/C (second compound 9.49 µM, first compound 0.01 µM) of the same molecule?
The viability, T/C was 98%.

What about the viability, T/C (second compound 9.49 µM, first compound 0.0316 µM) of the same molecule?
The viability, T/C was 85.8%.

And the viability, T/C (second compound 9.49 µM, first compound 0.1 µM)?
Its viability, T/C is 73.8%.

And the viability, T/C (second compound 30 µM, first compound 0.000316 µM)?
The viability, T/C was 90.2%.

What about the viability, T/C (second compound 30 µM, first compound 0.001 µM) of the same molecule?
The viability, T/C was 96.8%.

And the viability, T/C (second compound 30 µM, first compound 0.00316 µM)?
The viability, T/C was 82.3%.

And the viability, T/C (second compound 30 µM, first compound 0.01 µM)?
The viability, T/C was 96.8%.

And the viability, T/C (second compound 30 µM, first compound 0.0316 µM)?
The viability, T/C was 97.3%.

What about the viability, T/C (second compound 30 µM, first compound 0.1 µM) of the same molecule?
The viability, T/C was 72.6%.

— PubChem BioAssay AID2060354 (Molecular Pharmacology Branch, DTP, NCI, 2025)
